Assay results published in PubChem BioAssay (NCI).
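Values below derive from 48-hour exposures of cells grown in 96-well plates, with endpoints linearly interpolated between the two concentrations bracketing the appropriate inhibition level. TGI marks complete inhibition of growth.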

How the values were obtained:
Experiment in all cases: NCI tumour cell line growth inhibition, 48 h
RXF 393 renal = test system: RXF 393 renal
P388 leukemia = test system: P388 leukemia
SNB-19 CNS = test system: SNB-19 CNS
SF-268 CNS = test system: SF-268 CNS
RPMI-8226 leukemia = test system: RPMI-8226 leukemia
OVCAR-5 ovarian = test system: OVCAR-5 ovarian
NCI-H522 lung = test system: NCI-H522 lung
NCI-H23 lung = test system: NCI-H23 lung
UO-31 renal = test system: UO-31 renal
SF-295 CNS = test system: SF-295 CNS
SK-MEL-5 melanoma = test system: SK-MEL-5 melanoma
MALME-3M melanoma = test system: MALME-3M melanoma
DMS 114 small cell lung = test system: DMS 114 small cell lung
SW-620 colon = test system: SW-620 colon
EKVX NSCLC = test system: EKVX NSCLC
HT29 colon = test system: HT29 colon
OVCAR-4 ovarian = test system: OVCAR-4 ovarian
NCI-H460 lung = test system: NCI-H460 lung
KM20L2 colon = test system: KM20L2 colon
MOLT-4 leukemia = test system: MOLT-4 leukemia
M19-MEL melanoma = test system: M19-MEL melanoma
KM12 colon = test system: KM12 colon
CAKI-1 renal = test system: CAKI-1 renal
HCT-15 colon = test system: HCT-15 colon
UACC-62 melanoma = test system: UACC-62 melanoma
SF-539 CNS = test system: SF-539 CNS
K-562 leukemia = test system: K-562 leukemia
NCI/ADR-RES ovarian = test system: NCI/ADR-RES ovarian
U251 CNS = test system: U251 CNS
HOP-92 NSCLC = test system: HOP-92 NSCLC
IGROV1 ovarian = test system: IGROV1 ovarian
HOP-62 NSCLC = test system: HOP-62 NSCLC
HL-60(TB) leukemia = test system: HL-60(TB) leukemia
COLO 205 colon = test system: COLO 205 colon
HOP-18 NSCLC = test system: HOP-18 NSCLC
A498 renal = test system: A498 renal
DLD-1 colon = test system: DLD-1 colon
XF 498 CNS = test system: XF 498 CNS
SN12C renal = test system: SN12C renal
HCC-2998 colon = test system: HCC-2998 colon
SN12K1 renal = test system: SN12K1 renal
SK-OV-3 ovarian = test system: SK-OV-3 ovarian
A549 NSCLC = test system: A549 NSCLC
SK-MEL-2 melanoma = test system: SK-MEL-2 melanoma
LOX IMVI melanoma = test system: LOX IMVI melanoma
P388/ADR leukemia = test system: P388/ADR leukemia
NCI-H226 lung = test system: NCI-H226 lung
DMS 273 small cell lung = test system: DMS 273 small cell lung
SNB-78 CNS = test system: SNB-78 CNS
OVCAR-3 ovarian = test system: OVCAR-3 ovarian
MCF7 breast = test system: MCF7 breast
SNB-75 CNS = test system: SNB-75 CNS
CCRF-CEM leukemia = test system: CCRF-CEM leukemia
UACC-257 melanoma = test system: UACC-257 melanoma
HCT-116 colon = test system: HCT-116 colon
SK-MEL-28 melanoma = test system: SK-MEL-28 melanoma
OVCAR-8 ovarian = test system: OVCAR-8 ovarian
RXF-631 renal = test system: RXF-631 renal
ACHN renal = test system: ACHN renal
M14 melanoma = test system: M14 melanoma
LXFL 529 NSCLC = test system: LXFL 529 NSCLC
786-0 renal = test system: 786-0 renal
TK-10 renal = test system: TK-10 renal

Question: Which results are given for `CCOC(=O)CN1CCSC1=NC#N`?
Answer: TGI (RXF 393 renal): > 100 µM; TGI (P388 leukemia): > 100 µM; TGI (SNB-19 CNS): > 100 µM; TGI (SF-268 CNS): > 100 µM; TGI (RPMI-8226 leukemia): > 100 µM; TGI (OVCAR-5 ovarian): > 100 µM; TGI (NCI-H522 lung): > 100 µM; TGI (NCI-H23 lung): > 100 µM; TGI (UO-31 renal): > 100 µM; TGI (SF-295 CNS): > 42.7 µM; TGI (SK-MEL-5 melanoma): > 100 µM; TGI (MALME-3M melanoma): > 100 µM; TGI (DMS 114 small cell lung): > 100 µM; TGI (SW-620 colon): > 100 µM; TGI (EKVX NSCLC): > 100 µM; TGI (HT29 colon): > 100 µM; TGI (OVCAR-4 ovarian): > 100 µM; TGI (NCI-H460 lung): > 31.6 µM; TGI (KM20L2 colon): > 100 µM; TGI (MOLT-4 leukemia): > 100 µM; TGI (M19-MEL melanoma): > 100 µM; TGI (KM12 colon): > 100 µM; TGI (CAKI-1 renal): > 100 µM; TGI (HCT-15 colon): > 100 µM; TGI (UACC-62 melanoma): > 100 µM; TGI (SF-539 CNS): > 100 µM; TGI (K-562 leukemia): > 100 µM; TGI (NCI/ADR-RES ovarian): > 100 µM; TGI (U251 CNS): > 100 µM; TGI (HOP-92 NSCLC): > 100 µM; TGI (IGROV1 ovarian): > 100 µM; TGI (HOP-62 NSCLC): > 100 µM; TGI (HL-60(TB) leukemia): > 100 µM; TGI (COLO 205 colon): > 100 µM; TGI (HOP-18 NSCLC): > 100 µM; TGI (A498 renal): > 100 µM; TGI (DLD-1 colon): > 100 µM; TGI (XF 498 CNS): > 100 µM; TGI (SN12C renal): > 100 µM; TGI (HCC-2998 colon): > 100 µM; TGI (SN12K1 renal): > 100 µM; TGI (SK-OV-3 ovarian): > 100 µM; TGI (A549 NSCLC): > 100 µM; TGI (SK-MEL-2 melanoma): > 100 µM; TGI (LOX IMVI melanoma): > 37.6 µM; TGI (P388/ADR leukemia): > 100 µM; TGI (NCI-H226 lung): > 100 µM; TGI (DMS 273 small cell lung): > 100 µM; TGI (SNB-78 CNS): > 100 µM; TGI (OVCAR-3 ovarian): > 100 µM; TGI (MCF7 breast): > 100 µM; TGI (SNB-75 CNS): > 100 µM; TGI (CCRF-CEM leukemia): > 100 µM; TGI (UACC-257 melanoma): > 100 µM; TGI (HCT-116 colon): > 100 µM; TGI (SK-MEL-28 melanoma): > 100 µM; TGI (OVCAR-8 ovarian): > 100 µM

Question: Which TGI (RXF 393 renal) does the source give for `Cc1cccc(C)c1NC(=O)CCCC(=O)C1CCC/C1=N\NC(=O)C(=O)NN` (centres undefined) here?
Answer: > 100 µM

Question: What about the TGI (SNB-19 CNS) of the same compound?
Answer: > 100 µM

Question: And the TGI (SF-268 CNS)?
Answer: > 100 µM

Question: And the TGI (RPMI-8226 leukemia)?
Answer: > 100 µM

Question: And the TGI (OVCAR-5 ovarian)?
Answer: > 100 µM

Question: What about the TGI (NCI-H23 lung) of the same compound?
Answer: > 100 µM

Question: What about the TGI (UO-31 renal) of the same compound?
Answer: > 100 µM

Question: And the TGI (SF-295 CNS)?
Answer: > 100 µM

Question: And the TGI (SK-MEL-5 melanoma)?
Answer: > 100 µM

Question: And the TGI (MALME-3M melanoma)?
Answer: > 100 µM

Question: What about the TGI (DMS 114 small cell lung) of the same compound?
Answer: > 100 µM

Question: What about the TGI (SW-620 colon) of the same compound?
Answer: > 100 µM

Question: What about the TGI (EKVX NSCLC) of the same compound?
Answer: > 100 µM

Question: And the TGI (HT29 colon)?
Answer: > 100 µM

Question: What about the TGI (OVCAR-4 ovarian) of the same compound?
Answer: > 100 µM

Question: What about the TGI (NCI-H460 lung) of the same compound?
Answer: > 100 µM

Question: What about the TGI (KM20L2 colon) of the same compound?
Answer: > 100 µM

Question: What about the TGI (MOLT-4 leukemia) of the same compound?
Answer: > 100 µM

Question: What about the TGI (KM12 colon) of the same compound?
Answer: > 100 µM

Question: And the TGI (CAKI-1 renal)?
Answer: > 100 µM

Question: What about the TGI (HCT-15 colon) of the same compound?
Answer: > 100 µM

Question: And the TGI (SF-539 CNS)?
Answer: > 100 µM

Question: And the TGI (K-562 leukemia)?
Answer: > 100 µM

Question: And the TGI (U251 CNS)?
Answer: > 100 µM

Question: What about the TGI (RXF-631 renal) of the same compound?
Answer: > 100 µM

Question: And the TGI (HL-60(TB) leukemia)?
Answer: > 100 µM

Question: What about the TGI (ACHN renal) of the same compound?
Answer: > 100 µM

Question: What about the TGI (COLO 205 colon) of the same compound?
Answer: > 100 µM

Question: And the TGI (HOP-18 NSCLC)?
Answer: > 100 µM

Question: And the TGI (M14 melanoma)?
Answer: > 100 µM

Question: And the TGI (A498 renal)?
Answer: > 100 µM

Question: What about the TGI (DLD-1 colon) of the same compound?
Answer: > 100 µM

Question: And the TGI (XF 498 CNS)?
Answer: > 100 µM

Question: What about the TGI (LXFL 529 NSCLC) of the same compound?
Answer: > 100 µM

Question: What about the TGI (786-0 renal) of the same compound?
Answer: > 100 µM

Question: And the TGI (SN12C renal)?
Answer: > 100 µM

Question: What about the TGI (HCC-2998 colon) of the same compound?
Answer: > 100 µM

Question: And the TGI (SK-OV-3 ovarian)?
Answer: > 100 µM

Question: What about the TGI (A549 NSCLC) of the same compound?
Answer: > 100 µM

Question: And the TGI (SK-MEL-2 melanoma)?
Answer: > 100 µM

Question: And the TGI (LOX IMVI melanoma)?
Answer: > 100 µM

Question: And the TGI (NCI-H226 lung)?
Answer: > 100 µM

Question: What about the TGI (DMS 273 small cell lung) of the same compound?
Answer: > 100 µM

Question: And the TGI (SNB-78 CNS)?
Answer: > 100 µM

Question: And the TGI (OVCAR-3 ovarian)?
Answer: > 100 µM

Question: What about the TGI (SNB-75 CNS) of the same compound?
Answer: > 100 µM

Question: What about the TGI (CCRF-CEM leukemia) of the same compound?
Answer: > 100 µM

Question: What about the TGI (UACC-257 melanoma) of the same compound?
Answer: > 100 µM

Question: And the TGI (HCT-116 colon)?
Answer: > 100 µM

Question: What about the TGI (SK-MEL-28 melanoma) of the same compound?
Answer: > 100 µM

Question: What about the TGI (TK-10 renal) of the same compound?
Answer: > 100 µM

Question: What about the TGI (OVCAR-8 ovarian) of the same compound?
Answer: > 100 µM
